Data from patent US20020058266A1, “EF-Tu protein encoded on the plastid DNA of the malaria parasite and protein synthesis inhibitors effective as anti-malarial compounds” (priority 1997, published 2002).
*1 amine or outer side, *2 acyl side, *3 side chain or, on linkers, in order; H or OH if unused. Where a SMILES comes first, the peptide text is derived from it. Bridges are numbered along the chain shown (N, C = ends). [ ]: non-standard residue; d: D form. The star is where a group is joined. X1 = NC1=N[C@@H]([C@H](N[*:1])C(=O)[*:2])C[C@H](O)N1; ΔAla(Z-3-ureido) = NC(=O)N/C=C(\N)C(=O)O; β3hOrn = NCCC[C@H](N)CC(=O)*; Dap = NC[C@H](N)C(=O)O

Tests used:
P.chabaudi = assay: Mice infected with P.chabaudi; assay type: in vivo; settings: even at toxic dose levels, preliminary experiments
Description: The solid line is for aurodox, the dotted line is for mocimycin and the dashed line is for no drug controls. The arrows on the x-axis indicate days on which three 0.1 ml 100 mM ip injections were given.
On the basis of these findings, preliminary studies were carried out on mice infected with P.chabaudi. In the first experiment, mice were infected and inoculated on the same day intraperitoneally with 0.1 ml of 100 mM Aurodox, a dose calculated to mimic the maximal inhibitory effect observed in vitro. […] In a single experiment.

[1] = tested on: erythrocytic stages of P.falciparum; assay: Incorporation of radiotracers (3H-hypoxanthine, 14C-isoleucine) by P.falciparum growing in blood cultures; assay type: cell-based, Plasmodium falciparum
Description: Antibiotics—Samples of Mocimycin (kirromycin), Aurodox (N-methylated kirromycin), and Efrotomycin (a glycoside of kirromycin) were used. Aurodox was dissolved in RPMI-Albumax medium (Grande et al 1977), kirromycin was dissolved in RPMI made alkaline by addition of 1M NaOH, and efrotomycin was dissolved in ethanol before dilution in culture medium. Enacyloxin IIA was dissolved in 1% NaHCO3 prior to dilution in RPMI-Albumax medium. The antibiotic GE2270A was dissolved in 100% DMSO before dilution in culture medium. Fusidic acid (Sigma) was dissolved directly in culture medium, and thiostrepton (Sigma) in 100% DMSO before dilution in culture medium. A hemisuccinate form of thiostrepton was prepared as a potassium salt, according to Bodanszky et al 1965. Incorporation of radiotracers by P.falciparum growing in blood cultures in the presence and absence of drugs was carried out as described (Strath et al 1993).
Kirromycin: Kirromycin-resistant forms of bacterial EF-Tu are modified at one of seven amino acids along the opposing interfaces of domains I and III (Mesters et al 1994 and Abdulkarim et al 1994) and Pf EF-Tupl has a substitution at one of these sites (A375S-E.coli numbers) that could potentially confer resistance to kirromycin. To test this possibility, kirromycin (Mocimycin), its methylated derivative Aurodox or its disaccharide derivative Efrotomycin were incubated with erythrocytic stages of P.falciparum grown in cultures over a 36 hr period. The incorporation of both ^3H-hypoxanthine and ^14C-isoleucine was inhibited in a dose-dependent fashion, maximum inhibition being achieved at 100 μM kirromycin (FIG. 5). […] Once maximal depression of incorporation had been reached at any particular dose of drug, residual incorporation continued at a uniform rate thereafter. Vital staining with rhodamine 123, a fluorescent dye that concentrates within the mitochondrion (Divo et al. 1985) confirmed the parasiticidal effect, loss of specific mt staining being evident within 2-3 hours (data not shown). […] Blood cultures of P.falciparum were about 10 times more sensitive to the antibiotic than a gram-positive bacterium (Corynebacterium spp) used in parallel bioassays.

[2] = biological target: T1, heterologously expressed Pf EF-Tupl (Plasmodium falciparum, UniProt Q25820); assay: Band shift in native polyacrylamide gel with expressed Pf EF-Tupl; assay type: binding; settings: 100 μM antibiotic, 100 μM GDP, native 12% polyacrylamide gel
T1 construct: one clone in JM109 contained the complete insert; GST (cleaved yes); made in house; host or cells: E. coli JM109 (pGEX)
T1 sequence (Q25820 whole entry): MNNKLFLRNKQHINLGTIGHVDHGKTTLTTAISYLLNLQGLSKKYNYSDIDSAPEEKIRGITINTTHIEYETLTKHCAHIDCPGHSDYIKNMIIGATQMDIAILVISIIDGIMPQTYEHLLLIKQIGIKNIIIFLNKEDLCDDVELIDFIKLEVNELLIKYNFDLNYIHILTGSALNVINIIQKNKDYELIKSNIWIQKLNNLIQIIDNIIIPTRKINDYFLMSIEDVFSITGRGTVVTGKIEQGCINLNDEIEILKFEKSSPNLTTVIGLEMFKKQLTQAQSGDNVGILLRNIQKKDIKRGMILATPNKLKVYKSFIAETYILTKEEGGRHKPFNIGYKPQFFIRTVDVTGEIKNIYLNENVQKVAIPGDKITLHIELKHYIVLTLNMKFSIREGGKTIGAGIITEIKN
Description: FIG. 13 contains immunoblots showing that binding of antibiotics modifies migration of EF-Tu.GDP in native polyacrylamide gels. Two segments of the same gel show A) heterologously expressed Pf EF-Tupl protein detected with a malaria peptide-specific antibody and B) E.coli EF-Tu detected with a specific antibody (Breidenbach et al 1990). Lanes without antibiotics (1 and 5), lanes with 100 μM antibiotic: GE2270A (2 and 6), enacyloxin lla (3 and 7), kirromycin (4 and 8). Arrows indicate uncomplexed EF-Tu.
Drug binding—Thiostrepton binding to short rRNA transcripts generated in vitro was assayed according to Ryan et al 1991, as modified by Clough et al 1997. […] Before […], samples were incubated on ice for 15 mins in 50 mM imidazole acetate (pH 7.6), 10 mM NH4Cl, 10 mM MgCl2, 1 mM […] and 100 μM GDP, in a final volume of 20 μl.
The material tufA gene in pGEX was expressed as an insoluble fusion protein in E.coli JM 109. The protein was detected either with antibodies to the GST tag or with antibodies to a specific peptide sequence in domain I ([…]) not found on E.coli EF-Tu. Washed inclusion bodies were dissolved and refolded by dilution (Lin et al 1991).

Compound: CC(=O)O[C@H]1C[C@@]2(C)[C@@H](C[C@@H](O)[C@H]3[C@@]4(C)CC[C@@H](O)[C@@H](C)[C@@H]4CC[C@@]32C)/C1=C(\CCC=C(C)C)C(=O)O [Fusidic acid]
- effect on parasitaemias in mice (P.chabaudi): little effect on parasitaemias
- concentration at which maximum inhibition of radiotracer incorporation was achieved ([1]; 3H-hypoxanthine and 14C-isoleucine, cultures over a 36 hr period): 200 µM

Compound: NCCC[C@H](N)CC(=O)N[C@H]1CNC(=O)[C@H]([C@H]2C[C@H](O)NC(N)=N2)NC(=O)/C(=C/NC(N)=O)NC(=O)[C@H](CO)NC(=O)[C@H](CO)NC1=O [viomycin] (β3hOrn-[Dap]SS[ΔAla(Z-3-ureido)][X1]; lactam 1-C)
- effect on P.falciparum (specificity control) ([1]; data not shown): lack of effect

Compound: CNC(=O)C[C@@H]1NC(=O)c2csc(n2)-c2ccc(-c3nc(C4=N[C@H](C(=O)N5CCC[C@H]5C(N)=O)CO4)cs3)nc2-c2csc(n2)-c2csc(n2)[C@H]([C@@H](O)c2ccccc2)NC(=O)CNC(=O)c2nc(sc2COC)[C@H](C(C)C)NC(=O)c2nc1sc2C [GE2270]
- mobility (Mr) of the GDP form of the EF-Tu complex [2]: decreased
- inhibition of radiotracer incorporation in blood cultures, compared with other antibiotics ([1]; 3H-hypoxanthine and 14C-isoleucine, blood cultures): more inhibitory in blood cultures than either kirromycin or thiostrepton

Compound: CC/C=C/C(OC(N)=O)C(Cl)C(O)CC(=O)C(O)C(O)C(C)/C(Cl)=C/C=C/C=C(C)/C=C/C=C/C(=O)O[C@@H]1C[C@@H](C(=O)O)CC[C@@H]1O (stereo partly drawn) [Enacyloxin IIa]
- mobility (Mr) of the GDP form of the EF-Tu complex [2]: increased
